Measured values published in patent publication US5994361A, “Substituted purinyl derivatives with immunomodulating activity” (priority 1995, dated 1999).

What was measured:
[1] = tested on: virus; details: cited from earlier work
[2] = tested on: MC38 colon adenocarcinoma; test: Compound #1 with 5FU against colon adenocarcinoma (Example 95); assay type: in vivo, C57/BL mice
Method: C57/BL mice 6-8 weeks old (n=7-9/gr) were injected with 3×10^5 MC38 colon adenocarcinoma cells s.c. on day 0. On day 7, tumor-bearing mice were randomized and injected with 5FU at 20 mg/kg either alone or in combination with levamisole at 20 mg/kg i.p. or with compound #1 at 25 and 50 mg/kg i.p. over a four week period. During this period, animals were treated for 5 consecutive days, untreated for 2 days, and treated again for 5 consecutive days per week for 4 weeks.

[3] = tested on: spleen cells; test: Immunophenotyping on spleen cells, combination with 5 Fluorouracil; assay type: in vivo, C57/BLJ6 mice; details: 5 FU 80 mg/kg alone, N = 4
Method: (§1) After in vivo drugs analysis, the drugs were evaluated on whole blood for drug stability and toxicity. Furthermore, in vivo/ex vivo analysis was performed on normal and cyclophosphamide immunosuppressed animals plus 5Fu-treated animals. Cell immunophenotyping was performed on mouse-treatedblood and spleen. The following cell surface antigens were analyzed:
(§2) CD3 (all T cells), CD4 (T helper/inducer, binds class II-restricted T cells), CD8a (cytotoxic T cells, CTL adhesion), CD11a (T, B, NK, some stem cells, CTL adhesion anti LFA-1α), MAC-1 (monocyte/macrophage), NK (natural killer cells), Ly5 (B cells), CD45 (all leukocytes, protein tyrosine phosphates), and TCR (T cell receptor).
(§3) C57/BLJ6 mice (6-8 weeks old) were injected daily for 4 consecutive days, sacrificed at day 5 and immunophenotyping was performed on blood and spleen cells.
(§4) The cells were washed twice in PBS, resuspended in 1 ml of RPMI 2% FBS, and incubated for 45 min. on ice with monoclonal antibody. The cells were washed once, fixed with 1% paraformaldehyde, then analyzed using XL Coulter® counter.

[4] = tested on: blood cells; test: Immunophenotyping on blood cells, combination with 5 Fluorouracil; assay type: in vivo, C57/BLJ6 mice; details: 5 FU 80 mg/kg alone, N = 4
Method: as §1, §2, §3, §4

[5] = cited from earlier work
[6] = tested on: immune system; details: prior art; cited from earlier work
[7] = tested on: DA-3 mammary carcinoma; test: Compound #1 with Cytoxan 28 mg/kg against DA-3 mammary carcinoma, tumor sizes (Example 94); assay type: in vivo, Balb/c mice; design: key: tumor volume = length × width²/2
Method: (§5) Parameters of effect were measured by inhibition of tumor outgrowth and growth rate [tumors measured along the longest axis (length) and the perpendicular shortest axis (width) and the tumor volumes (T.V.±S.E.) was calculated by the formula T.V.=length (cm)×(width cm)^2 /2.] assessment of body weight loss.
(§6) In another experiment, the CTX treatment was prolonged. Balb/c mice were injected s.c. with 5×10^5 DA-3 tumor cells at day 0. At day 4 when established tumors appeared, tumor-bearing animals were randomized (n=11/gr.) and injected with CTX (at 28 mg/kg) i.v. bolus injections at days 4, 11, and 18. […]

[8] = Body weight, compound #1 with Cytoxan 28 mg/kg (Example 94); assay type: in vivo, Balb/c mice; design: body weight: unit not given here
Method: as §6

[9] = tested on: blood cells; test: Immunophenotyping on blood cells, combination with cyclophosphamide; assay type: in vivo, C57/BLJ6 mice; details: cyclophosphamide 100 mg/kg alone, N = 4
Method: as §1, §2, §3, §4

[10] = tested on: DA-3 mammary carcinoma; test: Tumor outgrowth of breast carcinoma, with cyclophosphamide (Example 92); assay type: in vivo, Balb/C mice; details: CY 100 mg/kg
Method: Balb/C Mice (n-5/Gr) were used along with DA-3 mammary carcinoma cell line. The mice were treated from -2 to 13 days. Animals were monitored for tumor takes/tumor size and body weights for three weeks from Day 0 until Day 21. D0 was the day of tumor cell inoculation and D21 was the day of experiment termination.
as §5
The statistical significance of difference between tumor takes and tumor sizes of control-untreated and drug-treated groups is estimated using the Chi-square and Student's t tests respectively with significance determined at n<0.05.
The mice were divided into the following 5 groups:
Gr.1--Normal Saline (0.2 ml/mouse i.p. starting at D2)
Gr.2--CY (100 mg/kg single bolus i.v. at D0)
Gr.3--Compound #1 (25 mg/kg i.p. starting at D2)
Gr.4--Compound #1 (50 mg/kg i.p. starting at D2)
Gr.5--CY (100 mg/kg i.v. at D0+compound #1 50 mg/kg i.p. starting at D2)

[11] = single agent (CTX 28 mg/kg days 4, 11, 18, or BCH-1393 50 mg/kg days 3-28), day 4
[12] = single agent (CTX 28 mg/kg or BCH-1393 50 mg/kg), day 7
[13] = single agent (CTX 28 mg/kg or BCH-1393 50 mg/kg), day 9
[14] = single agent (CTX 28 mg/kg or BCH-1393 50 mg/kg), day 11
[15] = single agent (CTX 28 mg/kg or BCH-1393 50 mg/kg), day 14
[16] = single agent (CTX 28 mg/kg or BCH-1393 50 mg/kg), day 16
[17] = single agent (CTX 28 mg/kg or BCH-1393 50 mg/kg), day 18
[18] = single agent (CTX 28 mg/kg or BCH-1393 50 mg/kg), day 21
[19] = single agent (CTX 28 mg/kg or BCH-1393 50 mg/kg), day 23
[20] = single agent (CTX 28 mg/kg or BCH-1393 50 mg/kg), day 25
[21] = single agent (CTX 28 mg/kg or BCH-1393 50 mg/kg), day 28
[22] = single agent (CTX 28 mg/kg or BCH-1393 50 mg/kg), day 30

Compound: Nc1nc2c(ccn2[C@@H]2O[C@H](CO)[C@@H](O)[C@H]2O)c(=O)[nH]1 [7-deazaguanosine]
- immunostimulatory and antiviral activity ([1]; after oral administration, preliminary): significant immunostimulatory and antiviral activity after oral administration

Compound: O=c1[nH]cc(F)c(=O)[nH]1 [5 FU, 5-fluorouracil, reference compound]
- anti-tumor response ([2]; 5FU 20 mg/kg alone): moderate anti-tumor response
- CD4+ CD45- (mean) [3]: 10.0
- NK+ (mean) [3]: 4.22
- CD8+ CD45+ (mean) [4]: 6.66
- NK+ (mean) [4]: 3.24

Compound: c1ccc([C@H]2CN3CCSC3=N2)cc1 [Levamisole, levamisole]
- adverse effect ([5]; adjuvant levamisole therapy for malignant melanoma): induces serious thrombocytopenia
- anti-tumor response ([2]; 5FU 20 mg/kg plus Levamisole 20 mg/kg): moderate anti-tumor response

Compound: Nc1nc2c(sc(=O)n2[C@@H]2O[C@H](CO)[C@@H](O)[C@H]2O)c(=O)[nH]1 [7-thia-8-oxoguanosine]
- oral bioavailability [5]: lack of oral bioavailability
- immunomodulating activity [6]: activate NK and B cells in the immune system, and to induce interferon
- antiviral results ([1]; humans): few encouraging results

Compound: O=P1(N(CCCl)CCCl)NCCCO1 (stereo not shown) [cyclophosphamide, reference compound]
- tumor size [7, 11]: 4.2
- tumor size [7, 12]: 10.5
- tumor size [7, 13]: 18.6
- tumor size [7, 14]: 30.7
- tumor size [7, 15]: 50.6
- tumor size [7, 16]: 54.5
- tumor size [7, 17]: 63.4
- tumor size [7, 18]: 88.5
- tumor size [7, 19]: 93.4
- tumor size [7, 20]: 106.3
- tumor size [7, 21]: 130.9
- tumor size [7, 22]: 151.6
- body weight [8, 11]: 19.2
- body weight [8, 12]: 19.8
- body weight [8, 13]: 19.8
- body weight [8, 14]: 19.9
- body weight [8, 15]: 19.2
- body weight [8, 16]: 19.7
- body weight [8, 17]: 19.6
- body weight [8, 18]: 19.8
- body weight [8, 19]: 19.7
- body weight [8, 20]: 20.1
- body weight [8, 21]: 20.3
- body weight [8, 22]: 20.4
- CP8+ CD45+ (mean) [9]: 15.05
- Tumor takes ([10]; day 4): 5/5
- Tumor takes ([10]; day 6): 5/5
- Tumor takes ([10]; day 8): 5/5
- Tumor takes ([10]; day 10): 5/5
